Each structure is given as a SMILES string.

Turning to `C[C@@H]1CN(Cc2ccc(F)cc2)CCN1C(=O)/C=C/c1ccc(Cl)cc1NC(=O)N1CCNC1=O` [Example 11, 2-Oxo-imidazolidine-1-carboxylic acid (5-Chloro-2-[(E)-3-[(R)-4-(4-fluoro-benzyl)-2-methyl-piperazin-1-yl]-3-oxo-propenyl]-phenyl)-amide], the melting point (as a rule, the temperature, or range, at which the solid turns liquid) lay in the range of 275 to 277 °C.
